In patent US20120108636A1, “Allosteric Enhancers of th A1 Adenosine Receptor” (King Pharmaceuticals Research and Development, Inc., priority 2008, published 2012):

Row | Structure (SMILES) | melting point [°C]
1 | COc1ccc(N(C)Cc2c(-c3ccccc3)sc(N)c2C(=O)c2ccc(Cl)cc2)cc1 [Example 16-12, {2-Amino-4-[((4-methoxyphenyl)(methyl)amino)methyl]-5-phenylthiophen-3-yl}(4-chlorophenyl)methanone] | 131.5 to 136
2 | N#Cc1ccc(-c2sc(N)c(C(=O)c3ccc(Cl)cc3)c2CN(C2CCCCC2)C2CCCCC2)cc1 [Example 10, {2-Amino-5-(4-cyanophenyl)-4-[(dicyclohexylamino)methyl]thiophen-3-yl}(4-chlorophenyl)methanone] | 196 to 200
3 | Nc1sc(-c2ccc(Cl)s2)c(CN(C2CCCCC2)C2CCCCC2)c1C(=O)c1ccc(Cl)cc1 [Example 32, {5-Amino-5′-chloro-3-[(dicyclohexylamino)methyl]-2,2′-bithiophen-4-yl}(4-chlorophenyl)methanone] | 195 to 197
4 | Nc1sc(-c2cc(F)cc(F)c2)c(CN(C2CCCCC2)C2CCCCC2)c1C(=O)c1ccc(Cl)cc1 [Example 17, {2-Amino-4-[(dicyclohexylamino)methyl]-5-(3,5-difluorophenyl)thiophen-3-yl}(4-chlorophenyl)methanone] | 163 to 166
5 | CN(Cc1c(-c2ccccc2)sc(N)c1C(=O)c1ccc(Cl)cc1)c1ccc(Cl)c(Cl)c1 [Example 16-11, {2-Amino-4-[((3,4-dichlorophenyl)(methyl)amino)methyl]-5-phenylthiophen-3-yl}(4-chlorophenyl)methanone] | 80 to 84
6 | Nc1sc(-c2ccccc2F)c(CN(C2CCCCC2)C2CCCCC2)c1C(=O)c1ccc(Cl)cc1 [Example 13, {2-Amino-4-[(dicyclohexylamino)methyl]-5-(2-fluorophenyl)thiophen-3-yl}(4-chlorophenyl)methanone] | 223 to 225
7 | CC(C)CN(Cc1c(-c2ccccc2)sc(N)c1C(=O)c1ccc(Cl)cc1)CC(C)C [Example 16-2, {2-Amino-4-[(diisobutylamino)methyl]-5-phenylthiophen-3-yl}(4-chlorophenyl)methanone] | 127 to 133
8 | Cc1ccc(-c2sc(N)c(C(=O)c3ccc(Cl)cc3)c2CN(C2CCCCC2)C2CCCCC2)cc1 [Example 18, {2-Amino-4-[(dicyclohexylamino)methyl]-5-(4-methylphenyl)thiophen-3-yl}(4-chlorophenyl)methanone] | 191 to 194
9 | COCCN(CCOC)Cc1c(-c2ccccc2)sc(N)c1C(=O)c1ccc(Cl)cc1 [Example 16-8, {2-Amino-4-[(bis(2-methoxyethyl)amino)methyl]-5-phenylthiophen-3-yl}(4-chlorophenyl)methanone] | 140 to 145
10 | Nc1sc(-c2ccccn2)c(CN(C2CCCCC2)C2CCCCC2)c1C(=O)c1ccc(Cl)cc1 [Example 34, {2-am ino-4-[(dicyclohexylamino)methyl]-5-(pyridin-2-yl)thiophen-3-yl}(4-chlorophenyl)methanone] | 192 to 194
11 | Nc1sc(-c2ccccc2)c(CN(C2CCCC2)C2CCCC2)c1C(=O)c1ccc(Cl)cc1 [Example 16-4, {2-Amino-4-[(dicyclopentylamino)methyl]-5-phenylthiophen-3-yl}(4-chlorophenyl)methanone] | 135 to 141
12 | CCCN(Cc1c(-c2ccccc2)sc(N)c1C(=O)c1ccc(Cl)cc1)C1CCCCC1 [Example 16-5, {2-Amino-4-[(cyclohexyl(propyl)amino)methyl]-5-phenylthiophen-3-yl}(4-chlorophenyl)methanone] | 162 to 165
13 | COC(=O)CN(C)Cc1c(-c2ccccc2)sc(N)c1C(=O)c1ccc(Cl)cc1 [Example 16-7] | 156.5 to 160
14 | Nc1sc(-c2ccc(Cl)c(Cl)c2)c(CN(C2CCCCC2)C2CCCCC2)c1C(=O)c1ccc(Cl)cc1 [Example 16-14, {2-Amino-5-(3,4-dichlorophenyl)-4-[(dicyclohexylamino)methyl]thiophen-3-yl}(4-chlorophenyl)methanone] | 222 to 225
15 | Nc1sc(-c2ccoc2)c(CN(C2CCCCC2)C2CCCCC2)c1C(=O)c1ccc(Cl)cc1 [Example 29, {2-Amino-[(dicyclohexylamino)methyl]-5-(furan-3-yl)thiophen-3-yl}(4-chlorophenyl)methanone] | 132 to 135
16 | Nc1sc(-c2ccccc2)c(CNC23CC4CC(CC(C4)C2)C3)c1C(=O)c1ccc(Cl)cc1 [Example 16-10, {2-Amino-4-[(1-adamantylamino)methyl]-5-phenylthiophen-3-yl}(4-chlorophenyl)methanone] | 135 to 140
17 | CC(C)Oc1ccc(-c2sc(N)c(C(=O)c3ccc(Cl)cc3)c2CN(C2CCCCC2)C2CCCCC2)cc1 [Example 16-15, {2-Amino-4-[(dicyclohexylamino)methyl]-5-(4-isopropoxyphenyl)thiophen-3-yl}(4-chlorophenyl)methanone] | 175 to 177
18 | Nc1sc(-c2ccco2)c(CN(C2CCCCC2)C2CCCCC2)c1C(=O)c1ccc(Cl)cc1 [Example 31, {2-Amino-4-[(dicyclohexylamino)methyl]-5-(furan-2-yl)thiophen-3-yl}(4-chlorophenyl)methanone] | 158 to 160
19 | Nc1sc(-c2ccc(Cl)cc2)c(CN(C2CCCCC2)C2CCCCC2)c1C(=O)c1ccc(Cl)cc1 [Example 12, {2-Amino-5-(4-chlorophenyl)-4-[(dicyclohexylamino)methyl]thiophen-3-yl}(4-chlorophenyl)methanone] | 200 to 204
20 | Nc1sc(-c2ccncc2)c(CN(C2CCCCC2)C2CCCCC2)c1C(=O)c1ccc(Cl)cc1 [Example 36, {2-amino-4-[(dicyclohexylamino)methyl]-5-(pyridin-4-yl)thiophen-3-yl}(4-chlorophenyl)methanone] | 214 to 216
21 | Nc1sc(/C=C/Cc2ccc(Cl)cc2)c(CN(C2CCCCC2)C2CCCCC2)c1C(=O)c1ccc(Cl)cc1 [Example 38, (E)-{2-amino-5[3-(4-chlorophenyl)prop-1-enyl]-4-[(dicyclohexylamino)methyl]thiophen-3-yl}(4-chlorophenyl)methanone] | 143 to 146
22 | Nc1sc(-c2cccnc2)c(CN(C2CCCCC2)C2CCCCC2)c1C(=O)c1ccc(Cl)cc1 [Example 35, {2-amino-4-[(dicyclohexylamino)methyl]-5-(pyridin-3-yl)thiophen-3-yl}(4-chlorophenyl)methanone] | 168 to 170
23 | Cc1ccc(N(C)Cc2c(-c3ccccc3)sc(N)c2C(=O)c2ccc(Cl)cc2)cc1 [Example 16-13, {2-Amino-4-[((4-methylphenyl)(methyl)amino)methyl]-5-phenylthiophen-3-yl}(4-chlorophenyl)methanone] | 173 to 176
24 | Nc1sc(-c2cccc(F)c2)c(CN(C2CCCCC2)C2CCCCC2)c1C(=O)c1ccc(Cl)cc1 [Example 14, {2-Amino-4-[(dicyclohexylamino)methyl]-5-(3-fluorophenyl)thiophen-3-yl}(4-chlorophenyl)methanone] | 205 to 207
25 | C=CCN(Cc1c(-c2ccccc2)sc(N)c1C(=O)c1ccc(Cl)cc1)C1CCCCC1 [Example 16-6] | 151 to 157
26 | Nc1sc(/C=C/CC2CCCCC2)c(CN(C2CCCCC2)C2CCCCC2)c1C(=O)c1ccc(Cl)cc1 [Example 37, (E)-{2-Amino-5-(3-cyclohexylprop-1-enyl)-4-[(dicyclohexylamino)methyl]thiophen-3-yl}(4-chlorophenyl)methanone] | 147 to 150
27 | COCCOc1ccc(-c2sc(N)c(C(=O)c3ccc(Cl)cc3)c2CN(C2CCCCC2)C2CCCCC2)cc1 | 162 to 164
28 | COc1ccc(-c2sc(N)c(C(=O)c3ccc(Cl)cc3)c2CN(C2CCCCC2)C2CCCCC2)cc1 [Example 19, {2-Amino-4-[(dicyclohexylamino)methyl]-5-(4-methoxyphenyl)thiophen-3-yl}(4-chlorophenyl)methanone] | 178 to 182
29 | CC(C)(C)c1ccc(-c2sc(N)c(C(=O)c3ccc(Cl)cc3)c2CN(C2CCCCC2)C2CCCCC2)cc1 [Example 11, {2-Amino-5-(4-t-butylphenyl)-4-[(dicyclohexylamino)methyl]thiophen-3-yl}(4-chlorophenyl)methanone] | 180 to 184
30 | Nc1sc(-c2ccc(F)cc2)c(CN(C2CCCCC2)C2CCCCC2)c1C(=O)c1ccc(Cl)cc1 [Example 15, {2-Amino-4-[(dicyclohexylamino)methyl]-5-(4-fluorophenyl)thiophen-3-yl}(4-chlorophenyl)methanone] | 222 to 224
